Source: patent US9365533B2, “Coumarin derivative” (NIPPON ZOKI PHARMACEUTICAL CO., LTD., priority 2012, dated 2016)

Tests used:
[1] = system: cartilage pieces of bovine metacarpophalangeal joint; experiment: Suppressive action to cartilage destruction: release of sGAG induced by IL-1α from cartilage pieces; format: cell-based; settings: Bos taurus, 96 h; 25 μmol/L test substance, 2 h pretreatment; human recombinant IL-1α 3 ng/mL; 4 days at 37° C.; read-out: sGAG Releasing Suppressive Rate (%)
Experimental: Evaluation of Suppressive Action to Cartilage Destruction [Release of sGAG Induced by Interleukin-1α (IL-1α)]
(1) Incubation of Cartilage Pieces
Each four cartilage pieces of bovine metacarpophalangeal joint were placed in each well of a 48-well plate and pretreated for 2 hours with a basal medium [D-MEM (Dulbecco's Modified Eagle Medium) containing 2 mmol/L of glutamine, 25 mmol/L of Hepes, 100 μg/mL of streptomycin, 100 IU/mL of penicillin and 5.6 μg/mL of amphotericin B] containing 25 μmol/L of a test substance. Human recombinant IL-1α (3 ng/mL) was added thereto followed by incubating at 37° C. for 4 days in a CO2 incubator set at 5 vol % of CO2. Culture supernatant and cartilage pieces were recovered and stored by freezing until the measurement for each of them.
(2) Measurement of the Amount of sGAG and Calculation of the Suppressive Rate for the Release of sGAG
The recovered cartilage pieces were treated with a papain solution [containing 1 mg/mL of papain, 100 mmol/L of sodium phosphate (pH 6.5), 5 mmol/L of L-cysteine and 5 mmol/L of disodium ethylenediaminetetraacetate (EDTA)] at 65° C. for about 16 hours to solubilize. Amount of sGAG in the resulting extract was measured using an sGAG Alcian Blue Binding Kit (Wieslab AB) which is a quantitative kit to which a Alcian blue staining protocol is applied. sGAG in the culture supernatant after the incubation was measured without subjecting to a papain treatment. Each releasing rate of sGAG was determined by the following formula to calculate the suppressive rate for the release of sGAG. Releasing rate (%) of sGAG={(Total sGAG amount in the culture supernatant)/[(Total sGAG amount in the culture supernatant)+(Total sGAG amount in the cartilage pieces)]}×100 Suppressive rate (%) for release of sGAG={[Releasing rate of sGAG (IL-1α stimulation)−Releasing rate of sGAG (Test substance)]/[Releasing rate of sGAG (IL-1α stimulation)−Releasing rate of sGAG (Non-stimulation)]}×100

HFLS-OA cells = experiment: Suppressive action to TNF-α-induced proliferation of synovial cells (HFLS-OA), BrdU ELISA; format: cell-based; settings: Synovial cell, 120 h; 200 μmol/L test substance; human recombinant TNF-α 10 ng/mL; 5 days; BrdU incorporation increase by TNF-α = 100%; read-out: Synovial Cell Proliferation Rate (%)
Experimental: Evaluation of Suppressive Action to Cell Proliferation of Synovial Cells (HFLS-OA) Derived from Tissues of Human Osteoarthritis
(1) Incubation of HFLS-OA Cells
HFLS-OA cells were sown onto a 96-well plate so as to make them 10^4 cells/well/100 μL in a D-MEM containing 2 vol % of fetal bovine serum (FBS) and incubated for 24 hours. A test substance (200 μmol/L) and human recombinant TNF-α (10 ng/mL) were added thereto followed by incubating for 5 days.
(2) Measurement of Action to HFLS-OA Cell Proliferation
A kit [Cell Proliferation ELISA, BrdU (colorimetric) (Roche Diagnostics)] was used and measurement was conducted according to the protocol attached to the kit. HFLS-OA cells were incubated for 3 days and 10 μL of 5-bromo-2′-deoxyuridine (BrdU) dissolved in a phosphate buffered saline (PBS) (100 μmol/L, pH 7.4) was added to each well followed by incubating for 48 hours more. After the culture supernatant was removed from each well, 200 μL/well of an immobilization/denaturation solution was added thereto and the mixture was allowed to stand for 30 minutes whereby immobilization of the cells and denaturation of DNA were conducted. After the immobilization/denaturation solution was completely removed, 100 μL of a peroxidase-labeled anti-BrdU antibody solution was added thereto and the mixture was made to react at room temperature for 90 minutes. After washing with PBS, 100 μL of a substrate liquid (tetramethylbenzidine) was added to each well and the absorbance was measured. A cell proliferation rate upon addition of each test substance was calculated where an increase in incorporation of BrdU upon addition of TNF-α was defined as 100% of cell proliferation rate.

SMILES: O=c1oc2c(OS(=O)(=O)c3cccc(Br)c3)cccc2cc1NS(=O)(=O)c1cccc(Br)c1 [Compound 32, 3-[(3-Bromophenyl)sulfonylamino]-2-oxochromen-8-yl 3-bromobenzenesulfonate]
- inhibition at 25 µM [1]: 202%
- activity at 200 µM (HFLS-OA cells): -41.1%

SMILES: O=c1oc2c(OS(=O)(=O)c3ccccc3)cccc2cc1NS(=O)(=O)c1ccc(-c2ccccc2)cc1 [Compound 30, 2-Oxo-3-[(4-phenylphenyl)sulfonylamino]chromen-8-yl benzenesulfonate]
- inhibition at 25 µM [1]: 141%
- activity at 200 µM (HFLS-OA cells): -33%

SMILES: O=c1oc2c(OS(=O)(=O)c3cccs3)cccc2cc1NS(=O)(=O)c1cccc([N+](=O)[O-])c1 [Compound 43, 3-[(3-Nitrophenyl)sulfonylamino]-2-oxochromen-8-yl thiophene-2-sulfonate]
- inhibition at 25 µM [1]: 107%
- activity at 200 µM (HFLS-OA cells): -30.3%

SMILES: O=c1oc2c(OS(=O)(=O)c3ccc(-c4ccccc4)cc3)cccc2cc1NS(=O)(=O)c1cccc(C(F)(F)F)c1 [Compound 63, 2-Oxo-3-[[3-(trifluoromethyl)phenyl]sulfonylamino]-chromen-8-yl 4-phenylbenzenesulfonate]
- inhibition at 25 µM [1]: 137%
- activity at 200 µM (HFLS-OA cells): -47.9%

SMILES: O=c1oc2c(OS(=O)(=O)c3cccc(Br)c3)cccc2cc1NS(=O)(=O)c1ccc(-c2ccccc2)cc1 [Compound 53, 2-Oxo-3-[(4-phenylphenyl)sulfonylamino]chromen-8-yl 3-bromobenzenesulfonate]
- inhibition at 25 µM [1]: 131%
- activity at 200 µM (HFLS-OA cells): -32.3%

SMILES: O=c1oc2c(OS(=O)(=O)c3ccccc3)cccc2cc1NS(=O)(=O)c1cccc(Br)c1 [Compound 31, 3-[(3-Bromophenyl)sulfonylamino]-2-oxochromen-8-yl benzenesulfonate]
- inhibition at 25 µM [1]: 135%
- activity at 200 µM (HFLS-OA cells): -37.1%

SMILES: O=c1oc2c(OS(=O)(=O)c3ccc(C(F)(F)F)cc3)cccc2cc1NS(=O)(=O)c1cccc([N+](=O)[O-])c1 [Compound 69, 3-[(3-Nitrophenyl)sulfonylamino]-2-oxochromen-8-yl 4-(trifluoromethyl)benzenesulfonate]
- inhibition at 25 µM [1]: 126%
- activity at 200 µM (HFLS-OA cells): -40.6%

SMILES: O=c1oc2c(OS(=O)(=O)c3cccc([N+](=O)[O-])c3)cccc2cc1NS(=O)(=O)c1ccc(C(F)(F)F)cc1 [Compound 67, 2-Oxo-3-[[4-(trifluoromethyl)phenyl]sulfonylamino]-chromen-8-yl 3-nitrobenzenesulfonate]
- inhibition at 25 µM [1]: 115%
- activity at 200 µM (HFLS-OA cells): -38.9%

SMILES: O=c1oc2c(OS(=O)(=O)c3ccccc3)cccc2cc1NS(=O)(=O)c1ccc(C(F)(F)F)cc1 [Compound 27, 2-Oxo-3-[[4-(trifluoromethyl)phenyl]sulfonylamino]-chromen-8-yl benzenesulfonate]
- inhibition at 25 µM [1]: 162%
- activity at 200 µM (HFLS-OA cells): -36.3%

SMILES: N#Cc1ccc(S(=O)(=O)Nc2cc3cccc(OS(=O)(=O)c4ccc(C#N)cc4)c3oc2=O)cc1 [Compound 13, 3-[(4-Cyanophenyl)sulfonylamino]-2-oxochromen-8-yl 4-cyanobenzenesulfonate]
- inhibition at 25 µM [1]: 44%
- activity at 200 µM (HFLS-OA cells): -54.1%

SMILES: CCOC(=O)c1ccc(S(=O)(=O)Oc2cccc3cc(NS(=O)(=O)c4cccc([N+](=O)[O-])c4)c(=O)oc23)cc1 [Compound 48, Ethyl 4-[3-[(3-nitrophenyl)sulfonylamino]-2-oxochromen-8-yl]oxysulfonylbenzoate]
- inhibition at 25 µM [1]: 122%
- activity at 200 µM (HFLS-OA cells): -34.9%

SMILES: O=c1oc2c(OS(=O)(=O)c3cccc([N+](=O)[O-])c3)cccc2cc1NS(=O)(=O)c1cccs1 [Compound 44, 2-Oxo-3-(2-thienylsulfonylamino)chromen-8-yl 3-nitrobenzenesulfonate]
- inhibition at 25 µM [1]: 118%
- activity at 200 µM (HFLS-OA cells): -31.5%

SMILES: O=c1oc2c(OS(=O)(=O)c3cccc(C(F)(F)F)c3)cccc2cc1NS(=O)(=O)c1ccc(-c2ccccc2)cc1 [Compound 52, 2-Oxo-3-[(4-phenylphenyl)sulfonylamino]chromen-8-yl 3-(trifluoromethyl)benzenesulfonate]
- inhibition at 25 µM [1]: 126%
- activity at 200 µM (HFLS-OA cells): -35.5%
